Key:
Type in all cases: in vivo, C57BL/6 mice
[1] = Body weight of mice measured every week for 28 weeks, CLA with or without SPG (Example 1, FIG. 2); conditions: oral, weekly over 28 weeks; compared to Comparative Experimental Group 1-3 (PBS)
Procedure: Six-week-old wild-type C57BL/6 mice, to be subjected to body fat monitoring, were purchased, acclimated for 3 days and then raised. Schizophyllum commune-derived β-glucan (SPG with the structure of β-(1,6)-branched (1,3)-glucan; Quegen Biotech Co., Ltd.) and a phosphate buffer solution (PBS) were orally administered as test drugs in combination or independently once every day. Specifically, 0.2 mL of CLA (concentration=10 mg/mL), and after 30 minutes, 0.2 mL of Schizophyllum commnune-derived β-glucan (SPG with the structure of β-(1,6)-branched (1,3)-glucan; concentration=0.4 mg/mL) were orally administered to Experimental Group 1-1. In addition, 0.2 mL of CLA (concentration=10 mg/mL), and after 30 minutes, 0.2 mL of Schizophyllum commune-derived β-glucan (SPG with the structure of β-(1,6)-branched (1,3)-glucan; concentration=2 mg/mL) were orally administered to Experimental Group 1-2. Meanwhile, 0.2 mL of CLA (concentration=10 mg/mL) was orally administered to Comparative Experimental Group 1-1. […]
Specifically, in Experimental Groups 1-1 and 1-2 and Comparative Experimental Groups 1-1 to 1-3, the body weights of the mice were measured every week for 28 weeks after the start of administration of the test drugs, and the result is shown in FIG. 2.

[2] = Body weights and tissue weights of mice sacrificed after 28 weeks (Example 1, FIG. 3); conditions: compared to Comparative Experimental Group 1-3 (PBS)
Procedure: (§1) Six-week-old wild-type C57BL/6 mice, to be subjected to body fat monitoring, were purchased, acclimated for 3 days and then raised. Schizophyllum commune-derived β-glucan (SPG with the structure of β-(1,6)-branched (1,3)-glucan; Quegen Biotech Co., Ltd.) and a phosphate buffer solution (PBS) were orally administered as test drugs in combination or independently once every day. Specifically, 0.2 mL of CLA (concentration=10 mg/mL), and after 30 minutes, 0.2 mL of Schizophyllum commnune-derived β-glucan (SPG with the structure of β-(1,6)-branched (1,3)-glucan; concentration=0.4 mg/mL) were orally administered to Experimental Group 1-1. In addition, 0.2 mL of CLA (concentration=10 mg/mL), and after 30 minutes, 0.2 mL of Schizophyllum commune-derived β-glucan (SPG with the structure of β-(1,6)-branched (1,3)-glucan; concentration=2 mg/mL) were orally administered to Experimental Group 1-2. Meanwhile, 0.2 mL of CLA (concentration=10 mg/mL) was orally administered to Comparative Experimental Group 1-1. In addition, 0.2 mL of Schizophyllum commune-derived β-glucan (SPG with the structure of β-(1,6)-branched (1,3)-glucan; concentration=2 mg/mL) was orally administered to Comparative Experimental Group 1-2, and 0.2 mL of PBS was orally administered to Comparative Experimental Group 1-3.
In addition, in Experimental Groups 1-1 and 1-2 and Comparative Experimental Groups 1-1 to 1-3, the mice were sacrificed after 28 weeks of administering the test drugs, and then body weights and tissue weights thereof measured, and the result is shown in FIG. 3.

[3] = Body weight of mice measured every week for 20 weeks, HCA with or without SPG (Example 2, FIG. 5); conditions: oral, weekly over 20 weeks; compared to Comparative Experimental Group 2-3 (PBS)
Procedure: Six-week-old wild-type C57BL/6 mice, to be subjected to body fat monitoring, were purchased, acclimated for 3 days and then raised. HCA (Sigma-Aldrich), Schizophyllum commune-derived β-glucan (SPG with the structure of β-(1.6)-branched (1,3)-glucan; Quegen Biotech Co., Ltd.) and a phosphate buffer solution (PBS) were orally administered as test drugs in combination or independently once every day. Specifically, 0.2 mL of HCA (concentration=10 mg/mL), and after 30 minutes, 0.2 mL of Schizophyllum commune-derived β-glucan (SPG with the structure of β-(1,6)-branched (1,3)-glucan; concentration=0.4 mg/mL) were orally administered to Experimental Group 2-1. In addition, 0.2 mL of HCA (concentration=10 mg/mL), and after 30 minutes, 0.2 mL of Schizophyllum commune-derived β-glucan (SPG with the structure of β-(1,6)-branched (1,3)-glucan; concentration=2 mg/mL) were orally administered to Experimental Group 2-2. Meanwhile, 0.2 mL of HCA (concentration=10 mg/mL) was orally administered to Comparative Experimental Group 2-1. […]
Specifically, in Experimental Groups 2-1 and 2-2 and Comparative Experimental Groups 2-1 to 2-3, the body weights of the mice were measured every week for 20 weeks after the start of administration of the test drugs, and the result is shown in FIG. 5.

[4] = Body weights and tissue weights of mice sacrificed after 20 weeks (Example 2, FIG. 6); conditions: compared to Comparative Experimental Group 2-3 (PBS)
Procedure: (§2) Six-week-old wild-type C57BL/6 mice, to be subjected to body fat monitoring, were purchased, acclimated for 3 days and then raised. HCA (Sigma-Aldrich), Schizophyllum commune-derived β-glucan (SPG with the structure of β-(1.6)-branched (1,3)-glucan; Quegen Biotech Co., Ltd.) and a phosphate buffer solution (PBS) were orally administered as test drugs in combination or independently once every day. Specifically, 0.2 mL of HCA (concentration=10 mg/mL), and after 30 minutes, 0.2 mL of Schizophyllum commune-derived β-glucan (SPG with the structure of β-(1,6)-branched (1,3)-glucan; concentration=0.4 mg/mL) were orally administered to Experimental Group 2-1. In addition, 0.2 mL of HCA (concentration=10 mg/mL), and after 30 minutes, 0.2 mL of Schizophyllum commune-derived β-glucan (SPG with the structure of β-(1,6)-branched (1,3)-glucan; concentration=2 mg/mL) were orally administered to Experimental Group 2-2. Meanwhile, 0.2 mL of HCA (concentration=10 mg/mL) was orally administered to Comparative Experimental Group 2-1. In addition, 0.2 mL of Schizophyllum commune-derived β-glucan (SPG with the structure of 3-(1.6)-branched (1,3)-glucan:concentration=2 mg/mL) was orally administered to Comparative Experimental Group 2-2, and 0.2 mL of PBS was orally administered to Comparative Experimental Group 2-3.
In addition, in Experimental Groups 2-1 and 2-2 and Comparative Experimental Groups 2-1 to 2-3, the mice were sacrificed after 20 weeks of administering the test drugs, and then body weights and tissue weights thereof measured, and the result is shown in FIG. 6.

[5] = Summary of the animal tests: supplement for reducing body fat and β-glucan, alone or co-administered; conditions: administered alone
Procedure: as §1, §2

[6] = Serum analysis of mice sacrificed after 20 weeks (Example 2, FIG. 7); conditions: compared to Comparative Experimental Group 2-3 (PBS)
Procedure: as §2, with “2-3. In addition, in Experimental Groups 2-1 and 2-2 and Comparative Experimental Groups 2-1 to 2-3, the mice were sacrificed after 20 weeks of administering the test drugs, and then subjected to serum analysis, and the result is shown in FIG. 7.” for “2-3.”

[7] = Serum analysis of mice sacrificed after 28 weeks (Example 1, FIG. 4); conditions: compared to Comparative Experimental Group 1-3 (PBS)
Procedure: as §1
In addition, in Experimental Groups 1-1 and 1-2 and Comparative Experimental Groups 1-1 to 1-3, the mice were sacrificed after 28 weeks of administering the test drugs, and then subjected to serum analysis, and the result is shown in FIG. 4.

Row | Molecule | body weight as the period of administering the test drugs progressed [1] | body weight at sacrifice [2] | tissue weight of each organ [2] | body weight as the period of administering the test drugs progressed [3] | body weight at sacrifice [4] | tissue weight of each organ [4] | weight loss effect [5] | tissue weight of the liver [4] | free fatty acid content (serum) [6] | liver damage (serum analysis) [6] | total cholesterol content in blood [6] | triglyceride content (serum) [6] | side effects (hepatotoxicity, increase in blood cholesterol level) [5] | tissue weight of the liver [2] | free fatty acid content (serum) [7] | liver damage (serum analysis) [7] | total cholesterol content in blood [7] | triglyceride content (serum) [7]
1 | β-(1,6)-branched (1,3)-glucan [Comparative Experimental Group 1-2] | no change in body weight | almost no change | almost no change | no change in body weight | almost no change | almost no change | does not exhibit a significant weight loss effect | – | – | – | – | – | – | – | – | – | – | –
2 | O=C(O)CC(O)(C(=O)O)C(O)C(=O)O (stereo not drawn) [Comparative Experimental Group 2-1, hydroxycitric acid] | – | – | – | greatly decreased in body weight | greatly decreased | greatly decreased | a weight loss effect caused by reduced body fat is exhibited | rather increased in tissue weight of the liver | decreased by more than half | had liver damage | increased in total cholesterol content in blood | decreased by more than half | side effects caused by hepatotoxicity and an increase in blood cholesterol level are problematic | – | – | – | – | –
3 | conjugated linoleic acid [Comparative Experimental Group 1-1] | greatly decreased in body weight | greatly decreased | greatly decreased | – | – | – | a weight loss effect caused by reduced body fat is exhibited | – | – | – | – | – | side effects caused by hepatotoxicity and an increase in blood cholesterol level are problematic | rather increased in tissue weight of the liver | decreased by more than half | had liver damage | increased in total cholesterol content in blood | decreased by more than half

Reference: patent publication US20200206291A1, “COMPOSITION FOR PREVENTING OR TREATING OBESITY, COMPRISING SUPPLEMENT FOR REDUCING BODY FAT AND B-GLUCAN AS ACTIVE INGREDIENTS” (QUEGEN BIOTECH CO., LTD., priority 2017, published 2020)
